Data set [1] has as its system VSV-ΔG SARS CoV-2 S pseudovirus. The format is cell-based.
The nature of a further data set: in vitro. To be noted: monkey, vero cells.
For data set [2] the following is noted: human, in vivo, iv; cited from earlier work.
The test system of another data set is SARS CoV-2. It is filed as cell-based.
The nature of data set [3]: MTT assay (cell survival). As to conditions: monkey, vero cells. (Formazan colour is commonly taken as a measure of viable cells.)
Protocol: (§1) Also, controls (solvent, Staurosporin (1 µM)) were prepared. Supernatants of cells were removed and substances applied for 8h, 24h and 48h at 37°C. • On day 2-4: fresh MTT [3-(4,5-Dimethylthiazol-2yl)-2,5-diphenyl-tetrazolium-bromid] was diluted in PBS to a final concentration of 5 mg/ml and 25 µl/well of MTT-solution were directly added to the wells and incubated for 1 h at 37°C. • MTT supernatant was removed and cells were lysed by 50 µl/well of 100 % DMSO and incubated for 1-5 minutes at room temperature. • Measurements were done at 562 nm in a photometer and % cell survival were calculated as = 100 × OD (sample) / OD (control).

The structures appear in SMILES notation. Read-outs that look alike come from different tables or passages of the source.

Protocol for in vitro: as §1

For the compound `CC(C)=CCC[C@]1(C)[C@@H](CC=C(C)C)C[C@]2(CC=C(C)C)C(=O)C(CC=C(C)C)=C(O)[C@@]1(C(=O)C(C)C)C2=O` [Hyperforin, hyperforin, reference compound], the “impact on the VSV pseudovirus” value in data set [1] is recorded as “did not have comparable impact”.
Compound `Cc1cc(O)c2c(=O)c3c(O)cc(O)c4c5c(O)cc(O)c6c(=O)c7c(O)cc(C)c8c1c2c(c34)c(c78)c65` [Hypericin, hypericin] yielded an MNTC in the data set “in vitro” of 1 µg/mL. Besides, the “initial peak plasma levels” value in data set [2] was 29.5 ng/mL. In addition, in data set [1], the “inhibition of the VSV pseudovirus” value is listed as “clearly inhibited”. For the same compound, the “viral load in diseased cells (PFU/ml)” value in the data set on SARS CoV-2 is “dramatically lowers the viral load”.
As to `Oc1cc(O)c2c(c1)O[C@H](c1ccc(O)c(O)c1)[C@H](O)[C@H]2c1c(O)cc(O)c2c1O[C@H](c1ccc(O)c(O)c1)[C@H](O)[C@H]2c1c(O)cc(O)c2c1O[C@H](c1ccc(O)c(O)c1)[C@H](O)C2` [Procyanidin C1, reference compound], in data set [3], the MNTC was determined as 50 µM. The “effect on the VSV pseudovirus” value in data set [1] is listed as “no significant inhibition”.
In the case of `Cc1cc(O)c2c(=O)c3c(O)cc(O)c4c5c(O)cc(O)c6c(=O)c7c(O)cc(CO)c8c1c2c(c34)c(c65)c78` [Pseudohypericin, pseudohypericin], the MNTC in data set [3] was found to be 1 µg/mL. For the same compound, the “inhibition of the VSV pseudovirus” value in data set [1] (1µg/ml) is on record as “clearly inhibited”.

Source of the values: EP4094756A1 (priority 2021, dated 2022).
